Here are results for one compound from US11541129B2, “Nanoreservoir coated medical devices, biomaterials, and bioprosthetics” (Université de Liège, priority 2016, dated 2023).

The test system of the assay is platelets. The experiment in a line: ADP-induced platelet aggregation in PRP (light transmission aggregometry). Format: cell-based. To be noted: Homo sapiens, 10 μM ADP, 37° C., read-out: IC50 concentration of free ticagrelor, ADP-induced platelet aggregation. The method, then: (A) PRP was pre-incubated for 10 min with a solution of nanoreservoir containing increasing concentrations of ticagrelor or with free ticagrelor, as indicated. Platelet aggregation was induced by adding 10 μM ADP at 37° C. under stirring conditions (1200 rpm). Percentages of maximum aggregation recorded by light transmission aggregometry are shown. Data represent means±SD (*p<0.05, **p<0.01, ***p<0.001). (B) Maximum platelet aggregation obtained in the presence of different ratios of ticagrelor-loaded nanogels and minocycline-loaded nanogels. NG: nanogel bearing PEG 1500; NGT: ticagrelor-loaded nanogel bearing PEG 1500; NGM: minocycline-loaded nanogel bearing PEG 1500. Data represent means±SD.
Platelet-rich-plasma (PRP) was prepared by centrifugation of citrate anticoagulated human blood at 100×g for 15 min at room temperature. Platelet aggregation experiments were performed on PRP aliquots under stirring (1200 rpm) at 37° C. using light aggregometry (Chrono-Log Model 700 aggregometer, Kordia).
For this purpose, 1 ml of nanogel suspensions loaded with increasing concentrations of ticagrelor was centrifuged at 12000 g for 15 minutes, washed 2 times in PBS and resuspended in 300 μL of PBS. 260 μL of platelet-rich-plasma (PRP) was incubated with 10 μL of purified nanogel suspensions for 10 min. Platelet aggregation was then induced by adding 10 μM ADP at 37° C. under stirring conditions. […]

In brackets after ≈: the same amount, converted by molar mass.

In the case of `CCCSc1nc(N[C@@H]2C[C@H]2c2ccc(F)c(F)c2)c2nnn([C@@H]3C[C@H](OCCO)[C@@H](O)[C@H]3O)c2n1` [ticagrelor], the IC50 is 1.8 µg/mL (≈ 3.44 µM).
